Results from PMC8617303 (2021).
One block for each molecule: values may come before it.

Key:
[1] = system: c-myc G-quadruplex (DNA, G4) TGAGGGTGGTGAGGGTGGGGAAGG; test: fluorescence titration, plate reader; settings: 2 nM compound; site 1 of 2
[2] = system: c-kit21 G-quadruplex (DNA, G4) CGGGCGGGGCGCGAGGAAAA; test: fluorescence titration, plate reader; settings: 2 nM compound; site 1 of 2
[3] = system: c-myc G-quadruplex (DNA, G4) TGAGGGTGGTGAGGGTGGGGAAGG; test: ITC; settings: K+ (50 mM KCl, 10 mM potassium phosphate); pH 7.0, 25 °C; site 1 of 2
[4] = system: bcl-2 G-quadruplex (DNA, G4) AGGGGCGGGCGCGGGAGGAAGGGGGCGGGAGCGGGGCTG; test: fluorescence titration, plate reader; settings: 2 nM compound; site 1 of 2
[5] = system: c-myc duplex (DNA, duplex) TGAGGGTGGTGAGGGTGGGGAAGG/CCTTCCCCACCCTCACCACCCTCA; test: fluorescence titration, plate reader; settings: 2 nM compound; site 1 of 2
[6] = system: tel22 G-quadruplex (DNA, G4) AGGGTTAGGGTTAGGGTTAGGG; test: fluorescence titration, plate reader; settings: 2 nM compound
[7] = system: c-myc mutant DNA (DNA, single strand) TGAAAATAATGAAAATAAAAAAGA; test: fluorescence titration, plate reader; settings: 2 nM compound
[8] = system: c-myc duplex (DNA, duplex) TGAGGGTGGTGAGGGTGGGGAAGG/CCTTCCCCACCCTCACCACCCTCA; test: ITC; settings: K+ (50 mM KCl, 10 mM potassium phosphate); pH 7.0, 25 °C; ~10^4 fold lower affinity than c-myc G4
[9] = system: c-myc mutant DNA (DNA, single strand) TGAAAATAATGAAAATAAAAAAGA; test: ITC; settings: K+ (50 mM KCl, 10 mM potassium phosphate); pH 7.0, 25 °C; ~10^4 fold lower affinity than c-myc G4
[10] = system: c-myc mutant DNA (DNA, single strand) TGAAAATAATGAAAATAAAAAAGA; test: gel retardation, native PAGE; settings: K+ (50 mM KCl, 10 mM potassium phosphate); pH 7.0, 25 °C; 10 µM DNA; up to 100 µM compound

SMILES: CC(C)=NOC(=O)Nc1ccc(Cl)cc1
Kd1 [2]: 1.71 ± 0.005 µM
Ka1 [3]: 3.34 × 10^5 ± 0.4 M^-1
Kd1 [4]: 0.761 ± 0.01 µM
Kd1 [5]: 0.559 ± 0.03 µM
Kd1 [1]: 0.010 ± 0.003 µM
Kd2 ([6]; stronger of two sites, printed as Kd2 (Kd1 3.47)): 2.89 ± 0.03 µM
Kd1 ([7]; site 1 of 2): 0.023 ± 0.03 µM

SMILES: Cc1ccc(NC(=S)Nc2ccccc2)cc1
Kd1 [1]: 1.34 ± 0.13 µM

SMILES: O=C(/C=C/C=C/c1ccc2c(c1)OCO2)N1CCCCC1
Ka1 [3]: 4.56 × 10^5 ± 0.03 M^-1

More lines, now with the values ahead:

Kd1 [1]: 2.86 ± 0.03 µM
SMILES: CC(=NNC(=S)NN=C(C)c1ccccc1)c1ccccc1

Kd1 [1]: 3.76 ± 0.03 µM
SMILES: CC(CCN=Cc1ccccc1O)N=Cc1ccccc1O (centres unmarked)

Kd1 [1]: 4.61 ± 0.05 µM
SMILES: O=C(CC(=O)Nc1ccccc1)Nc1ccccc1

Kd1 [2]: 4.86 ± 0.02 µM
Ka1 [3]: 3.81 × 10^7 ± 0.01 M^-1
Kd1 [4]: 0.024 ± 0.009 µM
Kd1 [5]: 1.81 ± 0.09 µM
binding [8]: weak
Kd1 [1]: 0.002 ± 0.001 µM
Kd1 ([6]; site 1 of 2): 0.19 ± 0.02 µM
binding [9]: weak
binding [10]: no
Kd2 [7]: 0.195 ± 0.04 µM
SMILES: O=S(=O)(NCCNS(=O)(=O)c1ccccc1)c1ccccc1

Kd1 [1]: 2.56 ± 0.02 µM
SMILES: Oc1ccccc1NCCNc1ccccc1O
